Reference: PubChem BioAssay AID248 (DTP/NCI, 2004)
Values joined by “and” are separate entries in the source; they are usually repeats but may differ in a detail not shown here. Identical values can stand only once. Toxic doses and inconclusive results are not listed. Rule as the data show it: active = T/C of 150% or more; inactive = T/C below 125%.

Tested on: L1210 leukemia ip in BDF1 mice, survival T/C
Experiment: NCI In Vivo Anticancer Drug Screen. Data for tumor model L1210 Leukemia (intraperitoneal) in B6D2F1 (BDF1) mice
Details: endpoint: mean survival time, higher = longer survival
Procedure, shortened: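 Transplantable tumor model; survival measured in treated vs vehicle control mice. Value = treated/control.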

[1] = dose: 50.0 mg/kg/injection, schedule: Q01DX009 (ip), vehicle: saline
[2] = dose: 100.0 mg/kg/injection, schedule: Q01DX009 (ip), vehicle: saline
[3] = dose: 200.0 mg/kg/injection, schedule: Q01DX009 (ip), vehicle: saline
[4] = dose: 100.0 mg/kg/injection, schedule: Q04DX003 (ip), vehicle: saline with Tween-80
[5] = dose: 200.0 mg/kg/injection, schedule: Q04DX003 (ip), vehicle: saline with Tween-80
[6] = dose: 400.0 mg/kg/injection, schedule: Q04DX003 (ip), vehicle: saline with Tween-80
[7] = dose: 100.0 mg/kg/injection, schedule: Q01DX009 (ip), vehicle: saline with Tween-80
[8] = dose: 200.0 mg/kg/injection, schedule: Q01DX009 (ip), vehicle: saline with Tween-80
[9] = dose: 100.0 mg/kg/injection, schedule: Q04DX002 (ip), vehicle: Klucel (hydroxypropylcellulose) (HPC)
[10] = dose: 200.0 mg/kg/injection, schedule: Q04DX002 (ip), vehicle: Klucel (hydroxypropylcellulose) (HPC)
[11] = dose: 400.0 mg/kg/injection, schedule: Q04DX002 (ip), vehicle: Klucel (hydroxypropylcellulose) (HPC)
[12] = dose: 50.0 mg/kg/injection, schedule: Q01DX009 (ip), vehicle: saline with Tween-80
[13] = dose: 100.0 mg/kg/injection, schedule: Q01DX001 (ip), vehicle: Klucel (hydroxypropylcellulose) (HPC)
[14] = dose: 100.0 mg/kg/injection, schedule: Q04DX003 (ip), vehicle: Klucel (hydroxypropylcellulose) (HPC)
[15] = dose: 200.0 mg/kg/injection, schedule: Q01DX001 (ip), vehicle: Klucel (hydroxypropylcellulose) (HPC)
[16] = dose: 200.0 mg/kg/injection, schedule: Q04DX003 (ip), vehicle: Klucel (hydroxypropylcellulose) (HPC)
[17] = dose: 400.0 mg/kg/injection, schedule: Q01DX001 (ip), vehicle: Klucel (hydroxypropylcellulose) (HPC)
[18] = dose: 400.0 mg/kg/injection, schedule: Q04DX003 (ip), vehicle: Klucel (hydroxypropylcellulose) (HPC)
[19] = dose: 100.0 mg/kg/injection, schedule: Q01DX001 (ip), vehicle: saline
[20] = dose: 200.0 mg/kg/injection, schedule: Q01DX001 (ip), vehicle: saline
[21] = dose: 400.0 mg/kg/injection, schedule: Q01DX001 (ip), vehicle: saline
[22] = dose: 100.0 mg/kg/injection, schedule: Q01DX009 (ip), vehicle: Klucel (hydroxypropylcellulose) (HPC)
[23] = dose: 25.0 mg/kg/injection, schedule: Q01DX009 (ip), vehicle: Klucel (hydroxypropylcellulose) (HPC)

Measured: T/C

COC1C(/C=C/C(C)=O)OC2OC(C)(C)OC21 (stereo not drawn)
inactive: dose: 6.25 mg/kg/injection, schedule: Q01DX009 (ip), vehicle: saline 105 % of control | dose: 12.5 mg/kg/injection, schedule: Q01DX009 (ip), vehicle: saline 105 % of control | dose: 25.0 mg/kg/injection, schedule: Q01DX009 (ip), vehicle: saline 107 % of control | [1] 98 % of control | [2] 100 % of control | [3] 98 % of control

CCCCCCCC(=O)NC1CCC(C(C)(C)C)CC1 (stereo not drawn)
inactive: dose: 100.0 mg/kg/injection, schedule: Q01DX009 (ip), vehicle: other 100 % of control | dose: 200.0 mg/kg/injection, schedule: Q01DX009 (ip), vehicle: other 97 % of control | dose: 400.0 mg/kg/injection, schedule: Q01DX009 (ip), vehicle: other 106 % of control

Nc1cccc2scnc12
inactive: [4] 90 % of control | [5] 95 % of control | [6] 90 % of control

CC(C)=CC[N+]12CN3CN(CN(C3)C1)C2
inactive: dose: 100.0 mg/kg/injection, schedule: Q04DX003 (ip), vehicle: saline 97 % of control | dose: 200.0 mg/kg/injection, schedule: Q04DX003 (ip), vehicle: saline 103 % of control | dose: 400.0 mg/kg/injection, schedule: Q04DX003 (ip), vehicle: saline 110 % of control

CSc1nc(Cl)cc2c1ncn2C1OC(CO)C(O)C1O (stereo not drawn)
inactive: dose: 100.0 mg/kg/injection, schedule: Q01DX005 (ip), vehicle: saline 100 % of control | dose: 200.0 mg/kg/injection, schedule: Q01DX005 (ip), vehicle: saline 100 % of control

CNC(=S)N(C)N=O
inactive: dose: 100.0 mg/kg/injection, schedule: Q01DX Z (ip), vehicle: methylcellulose (MC) 97 % of control | dose: 200.0 mg/kg/injection, schedule: Q01DX Z (ip), vehicle: methylcellulose (MC) 120 % of control

COc1ccc(C(=O)C(=O)c2ccccc2Cl)cc1
inactive: dose: 100.0 mg/kg/injection, schedule: Q01DX005 (ip), vehicle: saline with Tween-80 104 % of control | [7] 96 % of control | dose: 200.0 mg/kg/injection, schedule: Q01DX005 (ip), vehicle: saline with Tween-80 101 % of control | [8] 107 % of control | dose: 400.0 mg/kg/injection, schedule: Q01DX005 (ip), vehicle: saline with Tween-80 101 % of control | dose: 400.0 mg/kg/injection, schedule: Q01DX009 (ip), vehicle: saline with Tween-80 100 % of control

N#CC(Sc1ccccc1)c1ccccc1 (stereo not drawn)
inactive: [9] 119 % of control | [10] 97 % of control | [11] 86 % of control

CSc1ncnc2c1ncn2CC(=O)[C@@]1(O)CC[C@H]2[C@@H]3CCC4=CC(=O)CC[C@]4(C)[C@H]3[C@@H](O)C[C@@]21C
inactive: dose: 100.0 mg/kg/injection, schedule: Q01DX001 (sc), vehicle: steriod suspending solution 99 % of control | dose: 200.0 mg/kg/injection, schedule: Q01DX001 (sc), vehicle: steriod suspending solution 100 % of control | dose: 400.0 mg/kg/injection, schedule: Q01DX001 (sc), vehicle: steriod suspending solution 100 % of control

O=C(N/N=C/c1ccccn1)c1ccc(Cl)cc1
inactive: [12] 104 % of control | [7] 86 % of control | [8] 107 % of control

CC(C)N(C=O)c1ccc(C(=O)O)cc1
inactive: [13] 93 % of control | [14] 108 % of control | [15] 93 % of control | [16] 97 % of control | [17] 86 % of control | [18] 89 % of control

CCCCCCCCCCCC(=O)OCCOCCOCCOCCOCCOCCOCCOCCOCCO
inactive: [19] 104 % of control | [20] 98 % of control | [21] 98 % of control

O=C1CCc2nc(=O)c3c4ccccc4ccc3n21
inactive: [13] 94 % of control | [15] 100 % of control | [17] 99 % of control

COc1ccc(C(CC(=O)c2ccc3c(c2)OCO3)c2c(O)c3ccccc3oc2=O)cc1OC (stereo not drawn)
inactive: [12] 96 % of control | [7] 96 % of control | [4] 94 % of control | [8] 91 % of control | [5] 89 % of control | [6] 88 % of control

COC12CCCC1S(=O)(=O)C2 (stereo not drawn)
inactive: dose: 25.0 mg/kg/injection, schedule: Q01DX009 (ip), vehicle: saline with Tween-80 102 % of control | [12] 98 % of control

CCCC(/C=N/Nc1ccc([N+](=O)[O-])cc1[N+](=O)[O-])=C\c1ccccc1
inactive: dose: 100.0 mg/kg/injection, schedule: Q01DX001 (ip), vehicle: saline with Tween-80 88 % of control | dose: 200.0 mg/kg/injection, schedule: Q01DX001 (ip), vehicle: saline with Tween-80 88 % of control

N#C/C(=C\c1cc(Cl)ccc1O)C1CCC([N+](=O)[O-])CC1 (stereo not drawn)
inactive: dose: 100.0 mg/kg/injection, schedule: Q04DX002 (ip), vehicle: saline with Tween-80 98 % of control | dose: 200.0 mg/kg/injection, schedule: Q04DX002 (ip), vehicle: saline with Tween-80 113 % of control | dose: 400.0 mg/kg/injection, schedule: Q04DX002 (ip), vehicle: saline with Tween-80 106 % of control

C[CH2][Ge]1([CH2]C)[CH2]CC2(C[CH2]1)NC(=O)N(CCCN(C)C)C2O (stereo not drawn)
inactive: dose: 100.0 mg/kg/injection, schedule: Q04DX002 (ip), vehicle: saline 96 % of control | dose: 200.0 mg/kg/injection, schedule: Q04DX002 (ip), vehicle: saline 100 % of control | dose: 400.0 mg/kg/injection, schedule: Q04DX002 (ip), vehicle: saline 88 % of control

ClCCCSc1ccccc1
inactive: [19] 96 % of control and 111 % of control | [20] 96 % of control and 98 % of control | [21] 97 % of control and 98 % of control

C/C=C\C(C)C(C)C (stereo not drawn)
inactive: [1] 93 % of control | [2] 97 % of control | [3] 93 % of control

O=C1c2cc(Cl)cc(Cl)c2-c2c(NC(=O)C(Cl)Cl)cc(Cl)cc21
inactive: [22] 91 % of control | [14] 95 % of control | [16] 98 % of control | [18] 93 % of control

CCCCS(=O)(=O)N1CC(C)OC(C)C1 (stereo not drawn)
inactive: [9] 97 % of control | [10] 108 % of control | [11] 97 % of control

CCCCCCCCCCCCCCCCCN
inactive: dose: 12.5 mg/kg/injection, schedule: Q01DX009 (ip), vehicle: Klucel (hydroxypropylcellulose) (HPC) 100 % of control | dose: 12.5 mg/kg/injection, schedule: Q04DX003 (ip), vehicle: Klucel (hydroxypropylcellulose) (HPC) 93 % of control | [23] 101 % of control | dose: 25.0 mg/kg/injection, schedule: Q04DX003 (ip), vehicle: Klucel (hydroxypropylcellulose) (HPC) 100 % of control | dose: 50.0 mg/kg/injection, schedule: Q04DX003 (ip), vehicle: Klucel (hydroxypropylcellulose) (HPC) 102 % of control

CC(=O)Oc1cc(OC(C)=O)c2c(OC(C)=O)c3c(OC(C)=O)cc(C)cc3cc2c1
inactive: dose: 5.0 mg/kg/injection, schedule: Q01DX001 (ip), vehicle: saline 112 % of control | dose: 10.0 mg/kg/injection, schedule: Q01DX001 (ip), vehicle: saline 113 % of control

COc1cc(C(=Nc2ccccc2)C(=Nc2ccccc2)c2cc(OC)c(OC)c(OC)c2)cc(OC)c1OC
inactive: [23] 98 % of control | dose: 50.0 mg/kg/injection, schedule: Q01DX009 (ip), vehicle: Klucel (hydroxypropylcellulose) (HPC) 91 % of control | [22] 90 % of control | [14] 100 % of control | dose: 200.0 mg/kg/injection, schedule: Q01DX009 (ip), vehicle: Klucel (hydroxypropylcellulose) (HPC) 95 % of control and 116 % of control | [16] 97 % of control | dose: 400.0 mg/kg/injection, schedule: Q01DX009 (ip), vehicle: Klucel (hydroxypropylcellulose) (HPC) 120 % of control | [18] 96 % of control

COC(=O)C(NC(=O)C(C)NC(=O)OC(C)(C)C)C(C)O (stereo not drawn)
inactive: [19] 101 % of control | [20] 99 % of control | [21] 101 % of control
